Read-outs that look alike come from different tables or passages of the source.
Experiments:
Catalase activity = Catalase activity in tissues (Aebi's protocol); format: in vivo, Wistar rats; conditions: oral 60 mg/kg, 14 days
Experimental: (§1) The four groups received oral dose day by day for 14 days as follows: The first group: the negative control group, received 1:9; DMSO: Saline. The second group: the free TQ group, received a 60 mg/kg free TQ (3). The third group: The MSNs group received a 60 mg/kg MSNs dose. The fourth group: the LB-MSNs group, received a dose of 60 mg/kg MSNs loaded with TQ and coated with lipids. On day 14, rats were decapitated, and rat brains, liver, and kidneys were dissected for histopathological examination and oxidative stress measurements. The duration time of our experiment and the TQ doses were determined following Sheikhbahaei et al. (2016). 's work.
(§2) On the 14th day of the experiment, all the experimental groups were sacrificed by decapitation. […]
The catalase activity was determined according to Aebi’s protocol (spectrophotometry) using Biodiagnostic Kit No. CA 25 1, Egypt. […] The chromophore's absorbance at 510 nm is measured using a spectrophotometer (Jenway UV-6420; Barloworld Scientific, Essex, UK).
(§3) We used The Statistical Package for Social Sciences (SPSS) software (version 19) to analyze the data. The mean and standard error of the results were calculated. […] The percentage difference, which reflects the percent change in value compared to the control, was also assessed. %Difference%D=treatedvalue-controlvalue/controlvalue×100%

[1] = Distribution of TQ in brain areas, liver and kidney (HPLC); format: in vivo, Wistar rats; conditions: male, Wistar, rat, oral, 60 mg/kg TQ, read-out: TQ distribution, Mean ± SEM
Experimental: Twenty-eight male Wistar rats with an average weight of 110±10 gm were allocated into four random groups (seven rats/group). Animals were kept in fixed housing circumstances (12 h light/dark cycles) and temperature (25 °C) for three days to acclimatize. The Institutional Animal Ethics Committee approved the protocol for the in vivo study (CU-I-F-28-21).
as §1
(§4) On the 14th day of the experiment, all the experimental groups were sacrificed by decapitation. The brains of each animal were taken away after they were removed and put in an ice-cold Petri dish. The brain was sectioned into different regions (hippocampus, cortex, hypothalamus, thalamus, medulla, midbrain, cerebellum, and striatum). Each brain region was weighed and frozen until used in further measurements. Heidolph DIAX 900 was used to homogenize the brain sections weighed in 4 ml of ice-cold PBS (50 mM, pH 7.4). Then, for 15 minutes, the homogenates were separated using a high-speed cooling centrifuge. The centrifuge was set to 8000 RPM and 4°C (VS-18000 M small size, high speed, refrigerated centrifuge, Korea). The pure supernatant was collected and stored at -20°C for further analysis.
TQ was chromatographically identified at room temperature 25 °C. The mobile phase was 50: 30: **20 v/v/v methanol, acetonitrile, and potassium dihydrogen phosphate buffer (20 mM, pH 4.5), isocratically injected at a flow rate of 1 ml/min using the HPLC apparatus's C18 column (25 cm4.6 mm) (YL 9100 HPLC, USA).

NO and MDA metabolites = system: NO and MDA metabolites; parameters: method as in PMID 22309035; conditions: rat brain; 2, 5, or 10 mg/kg doses; cited from earlier work
Wistar rats = experiment: Histopathological examination of the kidney, liver, and different brain areas (H & E); format: in vivo; conditions: H & E x400, oral 60 mg/kg, 14 days
Experimental: as §1
Each group's brain, liver, and kidney were fixed in a formalin buffered solution (10%) for twenty-four hours. Fixed specimens were rinsed with tap water before dehydrating with methyl, ethyl, and absolute dilutions. Specimens were cleaned in xylene and embedded in paraffin wax for 24 hours in a 56°C hot air oven. Microtome blocks of Paraffin bees wax tissue were sectioned at 8 microns on a slide, collected on glass slides, and removed paraffin stained with hematoxylin and eosin (H & E) stains. A light microscope was used to examine the slides (Zeiss, Germany).

Nitric oxide (NO) levels = Nitric oxide (NO) levels in tissues (Griess reaction); format: in vivo, Wistar rats; conditions: all the tested organs; oral 60 mg/kg, 14 days
Experimental: as §1, §2
The nitric oxide assay was performed according to the Griess reaction method using biodiagnostic kit No. 25 33, Egypt. […] Absorption was measured using a spectrophotometer at […] (Jenway UV-6420; Barloworld Scientific, Essex, UK). NO levels were quantified as nitrite using the Griess reagent, according to Moshage et al..
as §3

[2] = system: Reduced glutathione (GSH) levels; experiment: Reduced glutathione (GSH) levels in tissues (Ellman's method); format: in vivo, Wistar rats; conditions: oral 60 mg/kg, 14 days
Experimental: as §1, §2
According to Ellman's method, the determination of Reduced Glutathione concentration (GSH) required using Biodiagnostic kit No. GR 25 11, Egypt. Ellman's method measured reduced glutathione levels, as the sulfhydryl group of […] lowers Ellman's reagent and produces 2-Nitro-smercaptobenzoic acid. The yellow-colored nitro-mercaptobenzoic acid was detected at 412 nm using a spectrophotometer (Jenway UV-6420; Barloworld Scientific, Essex, UK).
We used The Statistical Package for Social Sciences (SPSS) software (version 19) to analyze the data. The mean and standard error of the results were calculated. […]

[3] = system: Lipid peroxidation (MDA) levels; experiment: Lipid peroxidation (MDA) levels in tissues; format: in vivo, Wistar rats; conditions: oral 60 mg/kg, 14 days
Experimental: as §1, §4
MDA was determined as a marker of lipid peroxidation using a method developed by Begona Ruiz-Larrea et al., which entailed detecting the thiobarbituric acid-reactive molecules. […] A spectrophotometer was used to measure the absorbance of the generated compound at 532 nm (Jenway UV-6420; Barloworld Scientific, Essex, UK).
as §3

CC1=CC(=O)C(C(C)C)=CC1=O [TQ, 2-isopropyl-5-methyl-1,4-benzoquinone]
catalase activity change compared with negative control group (Catalase activity; all investigated areas except cerebellum, brain, kidney, hippocampus): no significant differences | catalase activity, significant difference compared with negative control (direction not given) (Catalase activity; cerebellum): 55.4% | concentration at 14 days ([1]; Cerebellum): 48 ± 18 ng/g | concentration at 14 days ([1]; Cortex): 25 ± 4 ng/g | concentration at 14 days ([1]; Hippocampus): 2 ± 0.3 ng/g | concentration at 14 days ([1]; Hypothalamus): 10 ± 0.3 ng/g | concentration at 14 days ([1]; Kidney): 112 ± 19 ng/g | concentration at 14 days ([1]; Liver): 201 ± 24 ng/g | concentration at 14 days ([1]; Medulla): 6 ± 1 ng/g | concentration at 14 days ([1]; Midbrain): 7 ± 1 ng/g | concentration at 14 days ([1]; Striatum): 13 ± 1 ng/g | concentration at 14 days ([1]; Thalamus): 4 ± 1 ng/g | NO and MDA metabolites in the hippocampus (NO and MDA metabolites): decreased | renal histopathological alterations (Wistar rats): mild histopathological alterations | NO level change compared with negative control group (Nitric oxide (NO) levels): nonsignificant changes | GSH level change compared with negative control group ([2]; all investigated areas except the cerebellum): no significant changes | GSH level, significant increase compared with control ([2]; cerebellum): 181.98% | MDA concentration change compared with control ([3]; all tested areas except the medulla): nonsignificant changes | MDA level, significant increase compared with control ([3]; liver): 67.01% | MDA level, significant decrease compared with control ([3]; medulla): 60.95%

From PMC9511777, “Novel lipid-coated mesoporous silica nanoparticles loaded with thymoquinone formulation to increase its bioavailability in the brain and organs of Wistar rats” (BMC Pharmacology & Toxicology, 2022)
